Results as given in patent publication US10548317B2, “Pesticidally active pyrazole derivatives” (SYNGENTA PARTICIPATIONS AG, priority 2015, dated 2020).

Tests used:
Format in all cases: in vivo
Thrips tabaci = Thrips tabaci (onion thrips) sunflower leaf disc test; conditions: foliar, 144 h, application rate of 200 ppm, sunflower leaf discs, mixed ages, 6 days after infestation
Method: Thrips tabaci (Onion thrips):
(§1) Sunflower leaf discs were placed on agar in 24-well microtiter plates and sprayed with aqueous test solutions prepared from 10'000 ppm DMSO stock solutions. After drying the leaf discs were infested with a thrips population of mixed ages. The samples were assessed for mortality 6 days after infestation.

Spodoptera littoralis = Spodoptera littoralis (Egyptian cotton leaf worm) leaf disc spray test; conditions: foliar, 72 h, application rate of 200 ppm, cotton leaf discs, L1 larvae, 3 days after infestation, read-out: control (at least one of mortality, anti-feedant effect, growth inhibition)
Method: Spodoptera littoralis (Egyptian Cotton Leaf Worm)
Cotton leaf discs were placed on agar in 24-well microtiter plates and sprayed with aqueous test solutions prepared from 10'000 ppm DMSO stock solutions. After drying the leaf discs were infested with five L1 larvae. The samples were assessed for mortality, anti-feedant effect, and growth inhibition in comparison to untreated samples 3 days after infestation. Control of Spodoptera littoralis by a test sample is when at least one of mortality, anti-feedant effect, and growth inhibition is higher than the untreated sample.

Plutella xylostella = Plutella xylostella (diamond back moth) artificial diet test; conditions: 120 h, application rate of 200 ppm, L2 larvae, 5 days after infestation, read-out: effect in at least one of the two categories (mortality or growth inhibition)
Method: Plutella xylostella (Diamond Back Moth):
24-well microtiter plates with artificial diet were treated with aqueous test solutions prepared from 10'000 ppm DMSO stock solutions by pipetting. After drying, the plates were infested with L2 larvae (10 to 15 per well). The samples were assessed for mortality and growth inhibition in comparison to untreated samples 5 days after infestation. The following compounds gave an effect of at least 80% in at least one of the two categories (mortality or growth inhibition) at an application rate of 200 ppm: 1, 2, 3, 4, 5, 6, 7, 8, 9, 10, 11, 12, 13, 14, 15, 16, 17, 18, 19, 20, 21, 22, 23, 24, 25, 26, 27, 28, 29, 30, 31, 32, 33, 35, 36, 37, 38, 39, 40, 41, 42, 43, 44, 45, 46, 47, 48, 50, 51, 52, 53, 54 and 55.

Diabrotica balteata = Diabrotica balteata (corn root worm) maize sprout test; conditions: 96 h, application rate of 200 ppm, maize sprouts, L2 larvae, 4 days after infestation, read-out: effect in at least one of the two categories (mortality or growth inhibition)
Method: Diabrotica balteata, (Corn Root Worm)
Maize sprouts, placed on an agar layer in 24-well microtiter plates were treated with aqueous test solutions prepared from 10'000 ppm DMSO stock solutions by spraying. After drying, the plates were infested with L2 larvae (6 to 10 per well). The samples were assessed for mortality and growth inhibition in comparison to untreated samples 4 days after infestation. The following compounds gave an effect of at least 80% in at least one of the two categories (mortality or growth inhibition) at an application rate of 200 ppm: 1, 3, 4, 5, 6, 7, 8, 9, 10, 11, 12, 14, 15, 16, 17, 18, 19, 20, 21, 22, 23, 24, 25, 26, 27, 28, 29, 30, 31, 32, 33, 35, 36, 37, 38, 39, 40, 41, 42, 43, 44, 45, 48, 50, 51, 52, 53, 54 and 55.

Tetranychus urticae = Tetranychus urticae (two-spotted spider mite) bean leaf disc test; conditions: foliar, 192 h, application rate of 200 ppm, bean leaf discs, mixed population (mobile stages), 8 days after infestation
Method: Tetranychus urticae (Two-Spotted Spider Mite):
as §1, with “Bean” for “Sunflower”, “discs” for “discs were placed”, “were” for “and”, “mite” for “thrips”, “on mixed population (mobile stages) 8” for “6”

Euschistus heros = Euschistus heros (neotropical brown stink bug) soybean leaf test; conditions: 120 h, application rate of 200 ppm, soybean leaves, N2 nymphs, 5 days after infestation, read-out: effect in at least one of the two categories (mortality or growth inhibition)
Method: Euschistus heros (Neotropical Brown Stink Bug)
Soybean leaves on agar in 24-well microtiter plates were sprayed with aqueous test solutions prepared from 10'000 ppm DMSO stock solutions. After drying the leaves were infested with N2 nymphs. The samples were assessed for mortality and growth inhibition in comparison to untreated samples 5 days after infestation. The following compounds gave an effect of at least 80% in at least one of the two categories (mortality or growth inhibition) at an application rate of 200 ppm: 3, 4, 5, 6, 9, 10, 12, 14, 15, 16, 17, 18, 20, 24, 27, 28, 29, 31, 32, 33, 36, 37, 38, 42, 43, 45, 50, 52, 53, 54 and 55.

Cn1nc(C(F)(F)C(F)(F)F)c(C(F)(F)F)c1-n1cc(-c2cc(C(=O)Nc3ccncc3)c(Cl)s2)cn1 [Compound 21]
≥ 80%: mortality at 200 ppm (Thrips tabaci) | control (mortality, anti-feedant effect or growth inhibition) at 200 ppm (Spodoptera littoralis) | percent effect (mortality or growth inhibition) at 200 ppm (Plutella xylostella) | percent effect (mortality or growth inhibition) at 200 ppm (Diabrotica balteata)

Cn1nc(C(F)(F)C(F)(F)F)c(C(F)(F)F)c1-n1cc(-n2cc(C(=O)NC3(C#N)CC3)c(C(F)(F)F)c2)cn1 [Compound 44]
≥ 80%: mortality at 200 ppm (Thrips tabaci) | control (mortality, anti-feedant effect or growth inhibition) at 200 ppm (Spodoptera littoralis) | percent effect (mortality or growth inhibition) at 200 ppm (Plutella xylostella) | percent effect (mortality or growth inhibition) at 200 ppm (Diabrotica balteata)

Cn1nc(C(F)(F)C(F)(F)F)c(C(F)(F)F)c1-n1cc(-c2cc(C(=O)NCCC(F)(F)F)c(Cl)s2)cn1 [Compound 30]
≥ 80%: mortality at 200 ppm (Thrips tabaci) | control (mortality, anti-feedant effect or growth inhibition) at 200 ppm (Spodoptera littoralis) | percent effect (mortality or growth inhibition) at 200 ppm (Plutella xylostella) | mortality at 200 ppm (Tetranychus urticae) | percent effect (mortality or growth inhibition) at 200 ppm (Diabrotica balteata)

C=C(C)CNC(=O)c1cc(-c2cnn(-c3c(C(F)(F)F)c(C(F)(F)C(F)(F)F)nn3C)c2)sc1Cl [Compound 13]
≥ 80%: control (mortality, anti-feedant effect or growth inhibition) at 200 ppm (Spodoptera littoralis) | percent effect (mortality or growth inhibition) at 200 ppm (Plutella xylostella) | mortality at 200 ppm (Tetranychus urticae)

CC(C)CNC(=O)c1cc(-c2cnn(-c3c(C(F)(F)F)c(C(F)(F)C(F)(F)F)nn3C)c2)sc1Cl [Compound 23]
≥ 80%: control (mortality, anti-feedant effect or growth inhibition) at 200 ppm (Spodoptera littoralis) | percent effect (mortality or growth inhibition) at 200 ppm (Plutella xylostella) | mortality at 200 ppm (Tetranychus urticae) | percent effect (mortality or growth inhibition) at 200 ppm (Diabrotica balteata)

Cn1nc(OC(F)(F)C(F)OC(F)(F)F)c(C(F)(F)F)c1-n1cc(-c2cc(C(=O)NC3CC3)c(Cl)s2)cn1 (stereo not shown) [Compound 55]
≥ 80%: percent effect (mortality or growth inhibition) at 200 ppm (Euschistus heros) | control (mortality, anti-feedant effect or growth inhibition) at 200 ppm (Spodoptera littoralis) | percent effect (mortality or growth inhibition) at 200 ppm (Plutella xylostella) | percent effect (mortality or growth inhibition) at 200 ppm (Diabrotica balteata)

Cn1nc(C(F)(F)C(F)(F)F)c(C(F)(F)F)c1-n1cc(-c2cc(C(=O)Nc3ccc(Cl)cc3)c(Cl)s2)cn1 [Compound 25]
≥ 80%: percent effect (mortality or growth inhibition) at 200 ppm (Plutella xylostella) | percent effect (mortality or growth inhibition) at 200 ppm (Diabrotica balteata)

Cn1nc(C(F)(F)C(F)(F)F)c(C(F)(F)F)c1-n1cc(-c2cc(C(=O)NC3(C(F)(F)F)CC3)c(Cl)s2)cn1 [Compound 22]
≥ 80%: mortality at 200 ppm (Thrips tabaci) | control (mortality, anti-feedant effect or growth inhibition) at 200 ppm (Spodoptera littoralis) | percent effect (mortality or growth inhibition) at 200 ppm (Plutella xylostella) | mortality at 200 ppm (Tetranychus urticae) | percent effect (mortality or growth inhibition) at 200 ppm (Diabrotica balteata)

Cc1nn(-c2cnn(-c3c(C(F)(F)F)c(C(F)(F)C(F)(F)F)nn3C)c2)cc1C(=O)NC1CC1 [Compound 46]
≥ 80%: control (mortality, anti-feedant effect or growth inhibition) at 200 ppm (Spodoptera littoralis) | percent effect (mortality or growth inhibition) at 200 ppm (Plutella xylostella)

Cn1nc(C(F)(F)C(F)(F)F)c(C(F)(F)F)c1-n1cc(-c2nc(C(=O)NC3(C#N)CC3)c(Cl)s2)cn1 [Compound 7, 5-chloro-N-(1-cyanocyclopropyl)-2-[1-[2-methyl-5-(1,1,2,2,2-pentafluoroethyl)-4-(trifluoromethyl)pyrazol-3-yl]pyrazol-4-yl]thiazole-4-carboxamide]
≥ 80%: control (mortality, anti-feedant effect or growth inhibition) at 200 ppm (Spodoptera littoralis) | percent effect (mortality or growth inhibition) at 200 ppm (Plutella xylostella) | mortality at 200 ppm (Tetranychus urticae) | percent effect (mortality or growth inhibition) at 200 ppm (Diabrotica balteata)

Cn1nc(C(F)(F)C(F)(F)F)c(C(F)(F)F)c1-n1cc(-c2cc(Cl)c(C(=O)NC3CC3)s2)cn1 [Compound 1, 3-chloro-N-cyclopropyl-5-[1-[2-methyl-5-(1,1,2,2,2-pentafluoroethyl)-4-(trifluoromethyl)pyrazol-3-yl]pyrazol-4-yl]thiophene-2-carboxamide]
≥ 80%: mortality at 200 ppm (Thrips tabaci) | control (mortality, anti-feedant effect or growth inhibition) at 200 ppm (Spodoptera littoralis) | percent effect (mortality or growth inhibition) at 200 ppm (Plutella xylostella) | mortality at 200 ppm (Tetranychus urticae) | percent effect (mortality or growth inhibition) at 200 ppm (Diabrotica balteata)

Cn1nc(C(F)(F)C(F)(F)F)c(C(F)(F)F)c1-n1cc(-c2csc(C(=O)NC3(C#N)CC3)c2)cn1 [Compound 51]
≥ 80%: control (mortality, anti-feedant effect or growth inhibition) at 200 ppm (Spodoptera littoralis) | percent effect (mortality or growth inhibition) at 200 ppm (Plutella xylostella) | percent effect (mortality or growth inhibition) at 200 ppm (Diabrotica balteata)

Cn1nc(C(F)(F)C(F)(F)F)c(C(F)(F)F)c1-n1cc(-c2csc(C(=O)NC3CC3)n2)cn1 [Compound 40]
≥ 80%: control (mortality, anti-feedant effect or growth inhibition) at 200 ppm (Spodoptera littoralis) | percent effect (mortality or growth inhibition) at 200 ppm (Plutella xylostella) | percent effect (mortality or growth inhibition) at 200 ppm (Diabrotica balteata)

Cn1nc(C(F)(F)C(F)(F)F)c(C(F)(F)F)c1-n1cc(-c2cc(C(=O)NCc3ccccn3)c(Cl)s2)cn1 [Compound 26]
≥ 80%: control (mortality, anti-feedant effect or growth inhibition) at 200 ppm (Spodoptera littoralis) | percent effect (mortality or growth inhibition) at 200 ppm (Plutella xylostella) | mortality at 200 ppm (Tetranychus urticae) | percent effect (mortality or growth inhibition) at 200 ppm (Diabrotica balteata)

Cn1nc(C(F)(F)C(F)(F)F)c(C(F)(F)F)c1-n1cc(-c2cc(Cl)c(C(=O)NC3(C#N)CC3)s2)cn1 [Compound 2, 3-chloro-N-(1-cyanocyclopropyl)-5-[1-[2-methyl-5-(1,1,2,2,2-pentafluoroethyl)-4-(trifluoromethyl)pyrazol-3-yl]pyrazol-4-yl]thiophene-2-carboxamide]
≥ 80%: control (mortality, anti-feedant effect or growth inhibition) at 200 ppm (Spodoptera littoralis) | percent effect (mortality or growth inhibition) at 200 ppm (Plutella xylostella)

Cn1nc(C(F)(F)C(F)(F)F)c(C(F)(F)F)c1-n1cc(-c2nc(C(=O)NC3CC3)c(Cl)s2)cn1 [Compound 8, 5-chloro-N-cyclopropyl-2-[1-[2-methyl-5-(1,1,2,2,2-pentafluoroethyl)-4-(trifluoromethyl)pyrazol-3-yl]pyrazol-4-yl]thiazole-4-carboxamide]
≥ 80%: control (mortality, anti-feedant effect or growth inhibition) at 200 ppm (Spodoptera littoralis) | percent effect (mortality or growth inhibition) at 200 ppm (Plutella xylostella) | percent effect (mortality or growth inhibition) at 200 ppm (Diabrotica balteata)

Cn1nc(C(F)(F)C(F)(F)F)c(C(F)(F)F)c1-n1cc(-c2cc(C(=O)NCc3ccccc3)c(Cl)s2)cn1 [Compound 19]
≥ 80%: control (mortality, anti-feedant effect or growth inhibition) at 200 ppm (Spodoptera littoralis) | percent effect (mortality or growth inhibition) at 200 ppm (Plutella xylostella) | mortality at 200 ppm (Tetranychus urticae) | percent effect (mortality or growth inhibition) at 200 ppm (Diabrotica balteata)

Cn1nc(C(F)(F)C(F)(F)F)c(C(F)(F)F)c1-n1cc(-c2csc(C(=O)NC3(C#N)CC3)n2)cn1 [Compound 41]
≥ 80%: control (mortality, anti-feedant effect or growth inhibition) at 200 ppm (Spodoptera littoralis) | percent effect (mortality or growth inhibition) at 200 ppm (Plutella xylostella) | percent effect (mortality or growth inhibition) at 200 ppm (Diabrotica balteata)

Cn1nc(C(F)(F)C(F)(F)F)c(OC(F)F)c1-n1cc(-c2cc(C(=O)NC3(C#N)CC3)cs2)cn1 [Compound 39]
≥ 80%: control (mortality, anti-feedant effect or growth inhibition) at 200 ppm (Spodoptera littoralis) | percent effect (mortality or growth inhibition) at 200 ppm (Plutella xylostella) | mortality at 200 ppm (Tetranychus urticae) | percent effect (mortality or growth inhibition) at 200 ppm (Diabrotica balteata)

Cn1nc(C(F)(F)C(F)(F)F)c(C(F)(F)F)c1-n1cc(-n2cc(C(=O)NC3(C#N)CC3)c(C(F)(F)F)n2)cn1 [Compound 11]
≥ 80%: mortality at 200 ppm (Thrips tabaci) | control (mortality, anti-feedant effect or growth inhibition) at 200 ppm (Spodoptera littoralis) | percent effect (mortality or growth inhibition) at 200 ppm (Plutella xylostella) | mortality at 200 ppm (Tetranychus urticae) | percent effect (mortality or growth inhibition) at 200 ppm (Diabrotica balteata)
